Laboratory results: patent US9133207B2, “Tetrandrine derivatives with substituted 5-carbon, preparation method and use thereof” (Hangzhou Bensheng Pharmaceutical Co., Ltd., priority 2011, dated 2015)
Values after ≈ are worked out from the molar mass of the structure shown.

Legend:
[1] = test system: Huh7 (human liver cancer cell); test: Solid tumor cell growth inhibition, MTT, 72 h (Example 7); assay type: cell-based
How it was run: (§1)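 MTT read-out of viable cells after 72 h compound treatment, reported as percent viability versus untreated control (100%). Cells seeded at 4000 per well, grown 24 h beforehand in 10% FBS DMEM high glucose, 37 °C, 5% CO2.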

A549 (human lung cancer) = test: as above; assay type: cell-based; conditions: Homo sapiens; 72 h, MTT, A549
How it was run: as §1

[2] = test system: Hela (human cervical cancer cell); test: as above; assay type: cell-based; conditions: Homo sapiens; 72 h, MTT, Hela
How it was run: as §1

[3] = test system: SK-OV-3 (ovarian cancer cell); test: as above; assay type: cell-based; conditions: Homo sapiens
How it was run: as §1

[4] = test system: Becap37 (human breast cancer cell); test: as above; assay type: cell-based
How it was run: as §1

[5] = test system: MGC 803 (human gastric cancer cell); test: as above; assay type: cell-based; conditions: Homo sapiens
How it was run: as §1

[6] = test system: RKO (human colon adenocarcinoma cell); test: as above; assay type: cell-based; conditions: Homo sapiens; 72 h, MTT, RKO
How it was run: as §1

[7] = test system: CNE (nasopharyngeal carcinoma cell); test: as above; assay type: cell-based; conditions: Homo sapiens
How it was run: as §1

[8] = test system: U87 MG (malignant glioma cell); test: as above; assay type: cell-based; conditions: Homo sapiens, U-87 MG
How it was run: as §1

[9] = mouse, in vivo, 50 mg/kg
Method: (§3) Animal: BALB/c nude mice, 8 weeks, female, purchased from Shanghai Laboratory Animal Center of Chinese Academy of Sciences, China.
(§4) The mice are administered from the third day after the inoculation. Each mouse is intragastrically administered in 0.4 ml each time and 3 times a day, at 8:00, 14:00 and 20:00, with 6-hour intervals. The administrations are successive for 10 days. The day before administration is deemed as Day 0 and the body weight and tumor size are determined every 5 days to produce a dynamic plot on body weight and tumor growth. On Day 29, the mice are dissected and the tumors are taken out and weighted. The tumor inhibition rate (%) is calculated after the effect of the medicament based on the tumor inhibition rate of the control group being zero.
(§5) The values determined are presented as mean±standard error (M±SD).

[10] = Experiment 8-2: body weight of nude mice, preliminary toxicity
Method: as §3, §4, §5

[11] = test system: RPMI8226 (multiple myeloma); test: Multiple myeloma cell growth inhibition, MTT, 72 h (Example 6); assay type: cell-based, human; conditions: Homo sapiens, RPMI-8226; 72 h, MTT, RPMI8226
How it was run: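 Viability was read by MTT after 72 h of compound exposure at 37 °C, 5% CO2. Each well held 6000 RPMI8226 cells in 1640 medium containing 10% fetal bovine serum, with derivatives added at various concentrations.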

[12] = test system: PANC-1 (pancreatic cancer); test: Solid tumor cell growth inhibition, MTT, 72 h (Example 7); assay type: cell-based, human
How it was run: as §1

PC-3 (prostate cancer) = test: as above; assay type: cell-based, human; conditions: Homo sapiens; 72 h, MTT, PC-3
How it was run: as §1

MG63 (osteosarcoma) = test: as above; assay type: cell-based, human; conditions: Homo sapiens; 72 h, MTT, MG-63
How it was run: as §1

[13] = test system: Hep-2 (laryngeal carcinoma); test: as above; assay type: cell-based, human; conditions: Homo sapiens; 72 h, MTT, Hep 2
How it was run: as §1

[14] = test system: CaES-17 (esophageal cancer cell); test: as above; assay type: cell-based, human; conditions: Homo sapiens, CaEs17; 72 h, MTT, CAES-17
How it was run: as §1

[15] = test system: Jurkat (acute lymphoblastic leukemia, ALL); test: Leukemia cell growth inhibition, MTT, 72 h (Example 5); assay type: cell-based, human
How it was run: (§2)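 Seed 6000 leukemia cells per well in 1640 medium containing 10% FBS. Add test compounds at different concentrations, mix, incubate 72 hours at 37° C in 5% CO2. Determine viable cells by MTT.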

[16] = test system: H9 (acute lymphoblastic leukemia, ALL); test: as above; assay type: cell-based, human; conditions: Homo sapiens; 72 h, MTT
How it was run: as §2

[17] = test system: NB4 (acute promyelocytic leukemia, AML); test: as above; assay type: cell-based, human; conditions: Homo sapiens; 72 h, MTT
How it was run: as §2

[18] = test system: Kasumi-1 (acute myeloid leukemia M2 type, AML-M2); test: as above; assay type: cell-based, human; conditions: Homo sapiens, Kasumi 1
How it was run: as §2

[19] = test system: K562/adr (drug-resistant, chronic myeloid leukemia, CML); test: as above; assay type: cell-based, human; conditions: Homo sapiens, K562/Adr; 72 h, MTT
How it was run: as §2

[20] = test system: human non-small cell lung cancer cell line A549 transplanted tumor; test: Experiment 8-2: transplanted tumor of human lung cancer in nude mice; assay type: in vivo, BALB/c nude mice
Text: Cell lines: human non-small cell lung cancer cell line A549, from China Center for Type Culture Collection (CCTCC);
The administrations are successive for 10 days.

[21] = Homo sapiens, 72 h, MTT, Becap-37
[22] = Homo sapiens, 72 h, MTT, PANC-1
[23] = Homo sapiens, Jurkat, 72 h, MTT

## COc1ccc2cc1Oc1ccc(cc1)C[C@H]1c3cc(c(OC)cc3CCN1C)Oc1c(OC)c(OC)c(CN3CCC(N(C)C)CC3)c3c1[C@H](C2)N(C)CC3 [BS-TE-354]
[1]; Homo sapiens, 72 h, MTT, Huh-7
  IC50: 0.65 mg/L (≈ 0.852 µM)
  IC90: 0.98 mg/L (≈ 1.28 µM)
[1]; compared with tetrandrine
  anti-Huh7 activity increase over tetrandrine: ~8 fold
A549 (human lung cancer)
  IC50: 1.8 mg/L (≈ 2.36 µM)
  IC90: 9.8 mg/L (≈ 12.8 µM)
[2]
  IC50: 1.07 mg/L (≈ 1.4 µM)
  IC90: 2.81 mg/L (≈ 3.68 µM)
[3]
  IC50: 1.4 mg/L (≈ 1.83 µM)
  IC90: > 16 mg/L
[4]; [21]
  IC50: 0.4 mg/L (≈ 0.524 µM)
  IC90: 2.4 mg/L (≈ 3.15 µM)
[4]; compared with tetrandrine
  anti-Becap37 activity increase over tetrandrine: 17 fold
[5]
  IC50: 0.83 mg/L (≈ 1.09 µM)
  IC90: 3.93 mg/L (≈ 5.15 µM)
[6]
  IC50: 0.25 mg/L (≈ 0.328 µM)
  IC90: 0.51 mg/L (≈ 0.668 µM)
[7]
  IC50: 0.54 mg/L (≈ 0.708 µM)
  IC90: 1.62 mg/L (≈ 2.12 µM)
[8]
  IC50: 0.31 mg/L (≈ 0.406 µM)
  IC90: 1.44 mg/L (≈ 1.89 µM)
[9]
  toxic and side effect under such a dosage: has caused some toxic and side effect
[10]; 50 mg/kg
  weight loss as compared with the weight in the control group (FIG. 6): relatively remarkable
[10]; 50 mg/kg intragastric, 3 times a day, 10 days, final body weight, M±SD
  Weight (g) Final: 16.08 ± 1.00 g
[10]; nude mice body weight before administration, M±SD
  Weight (g) Initial: 22.25 ± 0.29 g
[11]
  IC50: 0.08 mg/L (≈ 0.105 µM)
  IC90: 1.58 mg/L (≈ 2.07 µM)
[12]; [22]
  IC50: 1.25 mg/L (≈ 1.64 µM)
  IC90: 6.31 mg/L (≈ 8.27 µM)
[12]; compared with tetrandrine
  anti-PANC-1 activity increase over tetrandrine: 2 fold
PC-3 (prostate cancer)
  IC50: 1.9 mg/L (≈ 2.49 µM)
  IC90: 2.5 mg/L (≈ 3.28 µM)
MG63 (osteosarcoma)
  IC50: 0.68 mg/L (≈ 0.891 µM)
  IC90: 0.9 mg/L (≈ 1.18 µM)
[13]
  IC50: 2.05 mg/L (≈ 2.69 µM)
  IC90: 6.19 mg/L (≈ 8.11 µM)
[14]
  IC50: 0.91 mg/L (≈ 1.19 µM)
  IC90: 4.89 mg/L (≈ 6.41 µM)
[15]; [23]
  IC50: 0.5 mg/L (≈ 0.655 µM)
  IC90: 2.23 mg/L (≈ 2.92 µM)
[15]; compared with tetrandrine
  anti-Jurkat activity increase over tetrandrine: ~4 fold
[16]
  IC50: 0.78 mg/L (≈ 1.02 µM)
  IC90: 1.25 mg/L (≈ 1.64 µM)
[17]
  IC50: 0.4 mg/L (≈ 0.524 µM)
  IC90: 1 mg/L (≈ 1.31 µM)
[18]
  IC50: 0.37 mg/L (≈ 0.485 µM)
  IC90: 1.97 mg/L (≈ 2.58 µM)
[19]
  IC50: 0.99 mg/L (≈ 1.3 µM)
  IC90: 2.65 mg/L (≈ 3.47 µM)
[20]; 50 mg/kg
  effect on transplanted tumor of human lung cancer in nude mice: exhibits inhibiting effect
[20]; 50 mg/kg intragastric, 3 times a day, 10 days, Day 29, M±SD
  Mass of tumor: 423.25 ± 364.28 mg
[20]; 50 mg/kg intragastric, 3 times a day, 10 days, Day 29, control = zero
  Tumor Inhibition rate (%): 43.60%
